Key:
17 intestinal bacteria = test: Anti-bacterial test (MIC, broth microdilution); type: cell-based; details: 17 intestinal bacteria strains, 24 h
Protocol: Seventeen bacterial strains (see above) were used in the susceptibility test for BBR and dhBBR. The bacterial strains, which belong to different species of bacteria, were collected and identified as described above. The minimum inhibitory concentrations (MICs) of BBR and dhBBR after 24 h were determined through the broth microdilution method according to the CLSI guidelines. BBR and dhBBR were tested at a concentration range of 8 to 512 μg/ml. The MIC was defined as the lowest concentration of an agent that prevents turbidity. The experiment was repeated three times. All of the bacterial strains tested in this study (S. aureus ATCC 29213, E. faecalis ATCC 29212, E. coli ATCC 25922, S. aureus 08-43, S. epidermidis 12-12, E. faecium 13-01, E. faecalis 13-01, E. coli 06-05, K. pneumoniae 13-14, Ps. aeruginosa 13-10, A. baumannii 13-02, E. cloacae 13-12, and P. mirabilis 13-01) were facultative anaerobes, of which S. aureus ATCC 29213, E. faecalis ATCC 29212 and E. coli ATCC 25922 were standard strains from ATCC (USA) and served as quality controls. L. casei ATCC 334, L. acidophilus ATCC 4356, B. longum ATCC 15707, and B. breve ATCC 15700 were also tested in this anti-bacterial experiment. Ampicillin was used as the positive control.

[1] = tested on: rat small intestinal bacteria (RSIB); test: Conversion of BBR into dhBBR by rat small intestinal bacteria in vitro; type: in vitro ADME; details: BBR incubated with rat small intestine bacteria
Protocol: The small intestine contents from ten sacrificed SD rats were obtained and mixed with anaerobic medium to prepare the cultures. BBR was added into the incubation at final concentrations of 100, 50, and 10 μg/ml, and the reaction was continued for 6, 12 or 24 h. Levels of BBR, dhBBR and other BBR metabolites were determinedusing the LC-MS/MS 8040 and GC-MS instruments according to the above-mentioned method.

MAO-B = target: T1, MAO-B (Rattus norvegicus, UniProt P19643); details: intestinal homogenate, 30 min, no inhibitor
T1 sequence (P19643 1-520): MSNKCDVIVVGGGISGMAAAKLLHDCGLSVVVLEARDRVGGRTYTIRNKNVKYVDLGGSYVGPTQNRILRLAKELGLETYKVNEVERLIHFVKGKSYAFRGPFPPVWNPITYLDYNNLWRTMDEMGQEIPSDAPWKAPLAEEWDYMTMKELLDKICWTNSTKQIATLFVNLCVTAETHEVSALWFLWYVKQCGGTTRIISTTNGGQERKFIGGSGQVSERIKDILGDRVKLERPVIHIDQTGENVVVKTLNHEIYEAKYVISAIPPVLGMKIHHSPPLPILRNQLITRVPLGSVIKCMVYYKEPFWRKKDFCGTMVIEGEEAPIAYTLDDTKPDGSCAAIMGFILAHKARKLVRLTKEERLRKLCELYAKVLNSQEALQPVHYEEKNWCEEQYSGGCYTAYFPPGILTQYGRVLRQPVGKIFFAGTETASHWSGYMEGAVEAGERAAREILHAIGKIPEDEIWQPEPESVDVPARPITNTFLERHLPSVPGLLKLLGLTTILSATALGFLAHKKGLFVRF
Protocol: (§1) The reaction system consisted of dhBBR (100 μM), MAO-B (0.2 mg/ml) and phosphate-buffered saline (PBS, pH = 7.4) in a final volume of 200 μl. The MAO-B was pre-incubated via centrifugation at 850 rpm at 37 °C for 5 min, and this step was followed by the addition of dhBBR. The reaction was terminated after 30 min by adding an equal volume of ice-cold acetonitrile and centrifuging at 14,000 g for 5 min. Ten microliters of the supernatant was injected into the HPLC instrument for analysis.

nitroreductase = target: T2, nitroreductase (Escherichia coli, UniProt P38489); test: Nitroreductase-mediated BBR reduction, cell-free incubation; type: biochemical; details: BBR with nitroreductase, 37 °C
T2 construct: purchased Sigma-Aldrich Co. (Shanghai, China); host or cells: Escherichia coli
T2 sequence (P38489 whole entry): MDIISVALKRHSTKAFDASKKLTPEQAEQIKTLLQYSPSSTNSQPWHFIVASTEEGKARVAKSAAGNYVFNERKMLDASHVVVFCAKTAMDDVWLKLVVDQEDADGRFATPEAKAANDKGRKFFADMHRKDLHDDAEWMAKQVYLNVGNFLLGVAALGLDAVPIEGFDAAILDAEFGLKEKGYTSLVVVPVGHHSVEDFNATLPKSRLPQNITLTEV
Protocol: BBR was incubated with nitroreductase in intestinal bacteria cultures. The reaction mixture consisted of BBR (50 μg/ml), an NADPH-regenerating system and nitroreductase (5 μg/ml) in a final volume of 1 ml under the protection of N2. After incubation for 0, 2, 4, 6 and 12 h at 37 °C, the reaction was terminated by the addition of 1 ml of ice-cold acetonitrile. The samples were then extracted with 1 ml of ethyl acetate after adding 1 ml of 0.5 M sodium hydroxide solution. The organic phase was evaporated to dryness under a nitrogen flow in a water bath at 40 °C. The residue was dissolved with 200 μl of the mobile phase for further analysis. 2-Iodosobenzoic acid (2-IBA), a specific inhibitor of nitroreductase, was used to verify the role of bacterial nitroreductase.

[2] = target: T3, monoamine oxidase-B (MAO-B) (Homo sapiens, UniProt P27338); details: cell-free system, dhBBR 100 μM, 30 min
T3 sequence (P27338 1-520): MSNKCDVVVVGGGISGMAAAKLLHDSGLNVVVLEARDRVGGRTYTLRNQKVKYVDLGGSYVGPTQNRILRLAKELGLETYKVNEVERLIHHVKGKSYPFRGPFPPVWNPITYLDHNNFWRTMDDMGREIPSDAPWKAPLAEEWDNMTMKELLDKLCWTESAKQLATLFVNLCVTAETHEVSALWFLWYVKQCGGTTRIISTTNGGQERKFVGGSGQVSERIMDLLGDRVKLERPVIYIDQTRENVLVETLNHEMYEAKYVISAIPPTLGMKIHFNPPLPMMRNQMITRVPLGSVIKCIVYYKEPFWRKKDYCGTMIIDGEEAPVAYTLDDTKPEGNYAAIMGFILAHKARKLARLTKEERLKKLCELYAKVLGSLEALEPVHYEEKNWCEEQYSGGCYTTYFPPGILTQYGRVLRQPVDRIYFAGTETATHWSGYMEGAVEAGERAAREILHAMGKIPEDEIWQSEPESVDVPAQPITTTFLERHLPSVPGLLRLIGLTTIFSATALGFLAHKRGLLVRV
Protocol: as §1

[3] = Plasma pharmacokinetics after oral dhBBR or BBR in rats; type: in vivo, SD rats; details: oral dhBBR 200 mg/kg
Protocol: The plasma (100 μl) was precipitated with 100 μl of acetonitrile after addition of 10 μl of the internal standard. BBR served as a control in the study. The plasma concentrations of BBR and dhBBR were determined using LC-MS/MS 8040 and LC-MS/MS 8050.

Structure (SMILES): COc1ccc2c(c1OC)CN1CCc3cc4c(cc3C1=C2)OCO4 [dhBBR, dihydroberberine]
- antibacterial effect compared with BBR (17 intestinal bacteria): even weaker than that of BBR in 5 of the 17 intestinal bacteria strains
- incubation time until dhBBR became detectable [1]: ≤ 6 h
- dhBBR-to-BBR reversion (MAO-B): complete
- incubation time after which dhBBR became detectable (nitroreductase): 4 h
- reversion from dhBBR to BBR attributable to MAO-B [2]: approximately 10%
- AUC(0-t) ([3]; SD, rat, plasma, po, 200 mg/kg, Fig. 3b curve 2, read-out: AUC(0-t) of dhBBR in plasma): 48.9 ng·h/mL
- Cmax ([3]; SD, rat, plasma, po, 200 mg/kg, Fig. 3b curve 2, read-out: Cmax of dhBBR in plasma): 10.2 ng/mL
- dhBBR level in plasma [3]: less than 10 ng/ml
